Results published in publication PMC8876231, “Analogues of Natural Chalcones as Efficient Inhibitors of AKR1C3” (Metabolites, 2022).
Where “and” joins values, the source holds several entries; their conditions need not be identical. Equal entries are not always repeated.

Tests used:
Assay type in all cases: biochemical
Conditions in all cases: 10 µM compound; mean ± SD
[1] = molecular target: T1, HSD17B3 (Homo sapiens, UniProt P37058); experiment: HSD17B3 inhibition assay (∆4-androstene-3,17-dione to testosterone, HEK293 stably expressing HSD17B3)
T1 construct: expressed in transfected cells
T1 sequence (P37058 1-310): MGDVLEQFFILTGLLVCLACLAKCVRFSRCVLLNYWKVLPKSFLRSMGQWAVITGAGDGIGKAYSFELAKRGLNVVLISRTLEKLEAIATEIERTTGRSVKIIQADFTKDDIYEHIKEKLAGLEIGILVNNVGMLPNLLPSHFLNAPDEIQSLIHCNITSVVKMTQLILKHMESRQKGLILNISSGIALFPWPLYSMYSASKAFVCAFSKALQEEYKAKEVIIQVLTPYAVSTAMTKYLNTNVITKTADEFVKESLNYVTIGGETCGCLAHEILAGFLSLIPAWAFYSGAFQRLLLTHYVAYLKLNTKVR
Text: (§1) For enzymatic assays and inhibitor testing, all enzymes were cloned into bacterial or mammalian expression vectors. AKR1C3 and the human hydroxysteroid dehydrogenases HSD17B1, HSD17B2, HSD17B4 (SDR domain), HSD17B7, and HSD17B10 were cloned into a pGEX vector as described in [71, 72]. The coding sequences for AKR1C1, AKR1C2, and AKR1C4 were cloned by Gateway technology into the pcDNA3-N-MycDest vector according to the manufacturer’s instructions (Life Technologies, Carlsbad, CA, USA). The p11 plasmid coding for HSD17B14 (S205 variant) was a gift from Udo Opperman SGC Oxford, UK. For assays with HSD17B3, HEK293 cells stably expressing HSD17B3 were used. Enzymes were expressed in E. coli BL21 DE3 or E. coli BL21 DE3 Codon Plus RP (Stratagene, San Diego, CA, USA) or in HEK293 cells as described in [71, 72, 73]. Bacterial and cell pellets were stored at −20 °C and −80 °C, respectively, until use.
(§2) Inhibition assays were carried out as described in [71, 74]. […] For a detailed assay setup, see Supplementary Table S6. The incubation at 37 °C was stopped with 0.21 M ascorbic acid in methanol:acetic acid 99:1 (v:v) after the time needed to convert approximately 30% of the substrate in a control assay with 1% DMSO, without inhibitor candidate. Substrates and products were extracted from the reaction mixture by solid-phase extraction using C18 cartridges (Phenomenex, Aschaffenburg, Germany) and separated by RP–HPLC in a Beckman–Coulter HPLC Gold system, using the Luna 5 µm C18(2), 125 × 4.0 mm column (Phenomenex). The mobile phases used were H2O:ACN (57:43 (v:v); for assays of estrone (E1) to oestradiol (E2), E2 to E1, and ∆4-androstene-3,17-dione to testosterone conversion), H2O:ACN (49:51 (v:v); for assays of progesterone to 20α-hydroxyprogesterone conversion), and H2O:MeOH (35:65 (v:v) for assays of dihydrotestosterone (DHT) to 3α-androstanediol conversion) at a flow rate of 1 mL/min. Radioactivity was detected by online scintillation counting by using a radioactivity monitor (LB506D, Berthold Technologies, Bad Wildbad, Germany). Conversion of substrates to products was determined by integration of the peak area of the substrate and product peaks in percent. For calculation of inhibition, the conversion of control assay (assay without inhibitor) was set to 0% inhibition. All assays were run in triplicates, and mean values ± SD are reported.
(§3) Table S6: Activity assay setup […]
(§4) E1: estrone; E2: 17β-estradiol, A: Δ4-androstene-3,17-dione; T: testosterone, P: progesterone, 20αOHP: 20α-hydroxyprogesterone, DHT: dihydrotestosterone, 3α-Adiol: 3α-androstanediol, NaPi: 100 mM Na-phosphate buffer; PI: C0mplete protease inhibitor (Roche);. E.coli - Expression in E.coli BL21 DE3 Codon Plus RP except E.coli BL21 DE3 […]
(§5) application to antiparasitic and natural product synthesis. Eur J Org Chem […]
(§6) Synthesis of Xanthohumol analogues and discovery of potent thioredoxin reductase inhibitor as potential anticancer agent. J Med Chem 2015, 58,

[2] = molecular target: T2, AKR1C1 (Homo sapiens, UniProt Q04828); experiment: AKR1C1 inhibition assay (progesterone to 20α-hydroxyprogesterone)
T2 construct: Myc (N); expressed in transfected cells; host or cells: HEK293
T2 sequence (Q04828 1-323): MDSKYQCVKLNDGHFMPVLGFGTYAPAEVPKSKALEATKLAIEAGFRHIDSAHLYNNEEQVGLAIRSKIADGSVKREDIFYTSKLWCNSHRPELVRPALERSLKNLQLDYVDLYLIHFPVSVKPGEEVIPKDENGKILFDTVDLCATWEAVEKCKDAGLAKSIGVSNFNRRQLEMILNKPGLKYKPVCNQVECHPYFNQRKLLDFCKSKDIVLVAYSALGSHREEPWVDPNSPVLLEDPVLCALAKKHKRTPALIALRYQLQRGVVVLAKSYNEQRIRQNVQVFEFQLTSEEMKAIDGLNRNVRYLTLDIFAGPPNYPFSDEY
Text: as §1, §2, §3, §4, §5, §6

[3] = molecular target: T3, HSD17B4 (Homo sapiens, UniProt P51659); experiment: HSD17B4 (SDR domain) inhibition assay (oestradiol to estrone)
T3 construct: pGEX-HSD17B4 (SDR domain) in; GST (own knowledge: pGEX vectors encode N-terminal GST); made in house; host or cells: E. coli BL21 DE3 Codon Plus RP
T3 sequence (P51659 1-305 limits assumed): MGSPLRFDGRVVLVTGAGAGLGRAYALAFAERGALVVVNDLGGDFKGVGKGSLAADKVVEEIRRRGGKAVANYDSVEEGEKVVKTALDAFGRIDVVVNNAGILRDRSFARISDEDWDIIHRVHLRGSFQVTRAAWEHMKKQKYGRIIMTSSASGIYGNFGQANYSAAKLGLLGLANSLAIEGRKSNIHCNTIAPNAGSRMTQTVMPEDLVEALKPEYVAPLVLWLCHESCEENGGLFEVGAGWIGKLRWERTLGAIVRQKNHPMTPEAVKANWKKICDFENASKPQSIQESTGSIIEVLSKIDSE
Text: as §1, §2, §3
pGEX-HSD17B4 (SDR domain) in E2 à E1 estradiol-[6,7-3H], 40 NAD 750 µM NaPi pH7.7 […]
as §4, §5, §6

[4] = molecular target: T4, HSD17B2 (Homo sapiens, UniProt P37059); experiment: HSD17B2 inhibition assay (oestradiol to estrone)
T4 construct: GST (own knowledge: pGEX vectors encode N-terminal GST); made in house; host or cells: E. coli BL21 DE3 Codon Plus RP
T4 sequence (P37059 1-387): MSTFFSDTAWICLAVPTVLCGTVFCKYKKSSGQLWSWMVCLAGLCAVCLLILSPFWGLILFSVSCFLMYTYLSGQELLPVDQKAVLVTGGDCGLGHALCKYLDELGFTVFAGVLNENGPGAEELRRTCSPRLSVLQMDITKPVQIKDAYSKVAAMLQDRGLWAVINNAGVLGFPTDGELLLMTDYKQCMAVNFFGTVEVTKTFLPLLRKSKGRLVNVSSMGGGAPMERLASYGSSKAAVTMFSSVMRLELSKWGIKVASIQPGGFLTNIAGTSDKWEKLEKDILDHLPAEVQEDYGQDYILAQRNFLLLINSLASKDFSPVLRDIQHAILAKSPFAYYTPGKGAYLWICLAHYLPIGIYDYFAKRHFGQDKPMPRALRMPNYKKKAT
Text: as §1, §2, §3, §4, §5, §6

COc1ccc(/C=C/C(=O)c2c(O)cc(O)cc2OC)cc1 [Compound 18]
Inhibition of HSD17B3 at 10 µM in % [1]: 24.8 ± 4.8% | Inhibition of AKR1C1 at 10 µM in % [2]: 96.5% | Inhibition of HSD17B4 at 10 µM in % [3]: 9.9 ± 6.1% | Inhibition of HSD17B2 at 10 µM in % [4]: 10.4 ± 1.6%

COc1ccc(/C=C/C(=O)c2c(O)cc(O)cc2O)cc1 [Compound 19]
Inhibition of HSD17B3 at 10 µM in % [1]: 41.8 ± 3.3% | Inhibition of AKR1C1 at 10 µM in % [2]: > 75% | Inhibition of HSD17B4 at 10 µM in % [3]: 2.0 ± 2.9% | Inhibition of HSD17B2 at 10 µM in % [4]: 29.6 ± 3.7%

Cc1cccc(/C=C/C(=O)c2c(O)cc(O)cc2O)c1 [Compound 20]
Inhibition of HSD17B3 at 10 µM in % [1]: 55.9 ± 4.1% | Inhibition of AKR1C1 at 10 µM in % [2]: 86.9 ± 1.1% and > 75% | Inhibition of HSD17B4 at 10 µM in % [3]: 8.6 ± 1.1% | Inhibition of HSD17B2 at 10 µM in % [4]: 61.0 ± 0.9%

Cc1ccc(/C=C/C(=O)c2c(O)cc(O)cc2O)cc1 [Compound 21]
Inhibition of HSD17B3 at 10 µM in % [1]: 52.7 ± 6.7% | Inhibition of AKR1C1 at 10 µM in % [2]: 90.2 ± 0.8% and > 75% | Inhibition of HSD17B4 at 10 µM in % [3]: 3.0 ± 6.3% | Inhibition of HSD17B2 at 10 µM in % [4]: 44.2 ± 4.7%

O=C(/C=C/c1ccc(Cl)cc1Cl)c1c(O)cc(O)cc1O [Compound 23, 2,4-dichloro-2′,4′,6′-trihydroxychalcone]
inhibition at 10 µM [1]: 68.6% | inhibition at 10 µM [2]: 97 ± 0.5% | inhibition at 10 µM [3]: 19.6 ± 1% | inhibition at 10 µM [4]: 88.8%

COc1cc(O)cc(O)c1C(=O)/C=C/c1ccc(Cl)cc1Cl [Compound 25]
Inhibition of HSD17B3 at 10 µM in % [1]: 20.9 ± 8.0% | Inhibition of AKR1C1 at 10 µM in % [2]: 87.9% | Inhibition of HSD17B4 at 10 µM in % [3]: -6.0 ± 7.5% | Inhibition of HSD17B2 at 10 µM in % [4]: 12.7 ± 2.3%
